What was measured:
[1] = human liver microsomes
[2] = Human hepatocyte stability; format: in vitro ADME; conditions: human hepatocytes
[3] = tested on: U87 MG/M human glioblastoma xenografts; conditions: each dose, for the duration of the xenograft study

Structure (SMILES)	HLM Clhep [1]	HH Clhep [2]	tolerability [3]
COC(C)(C)c1cc2nc(-c3cnc(N)nc3)nc(N3CCOCC3)c2s1 [Compound 1, reference compound]	10.4 mL/min/kg	–	–
COC1(c2sc3c(N4CCOCC4)nc(-c4cnc(N)nc4)nc3c2C)COC1 [Compound 2, reference compound]	9.8 mL/min/kg	–	–
Cc1nc(N)ncc1-c1nc(N2CCOCC2)c2nc(C(C)(C)O)n(CCO)c2n1 [Compound 4]	2.8 mL/min/kg	–	–
Cc1nc(N)ncc1-c1nc(N2CCOCC2)c2nc3n(c2n1)CCOC3(C)C [Compound 15]	3.1 mL/min/kg	1.2 mL/min/kg	–
CC1(C)OCCn2c1nc1c(N3CCOCC3)nc(-c3cnc(N)nc3)nc12 [Compound 16, GDC-0084]	5.0 mL/min/kg	1.0 mL/min/kg	well tolerated

— publication PMC4834666 (ACS Medicinal Chemistry Letters, 2016)
